US10538555B2, “Macrocyclic inhibitors of the PD-1/PD-L1 and CD80(B7-1)/PD-L1 protein/protein interactions” (BRISTOL-MYERS SQUIBB COMPANY, priority 2014, dated 2020)
Where a SMILES comes first, the peptide text is derived from it. Bridges are numbered along the chain shown (N, C = ends). [ ]: non-standard residue; d: D form. ξ: configuration not given here. Lac(3-(indol-3-yl)) = O=C(O)[C@@H](O)Cc1c[nH]c2ccccc12; Phe(3,4,5-F3) = N[C@@H](Cc1cc(F)c(F)c(F)c1)C(=O)O; NMePhe(4-Me) = CN[C@@H](Cc1ccc(C)cc1)C(=O)O; NMePhe(4-F) = CN[C@@H](Cc1ccc(F)cc1)C(=O)O; Bta = N[C@@H](Cc1csc2ccccc12)C(=O)O; NMeF = CN[C@@H](Cc1ccccc1)C(=O)O; dHyp = O=C(O)[C@H]1C[C@H](O)CN1; NMeNle = CCCC[C@H](NC)C(=O)O; dNle = CCCC[C@@H](N)C(=O)O; NMeA = CN[C@@H](C)C(=O)O; Orn = NCCC[C@H](N)C(=O)O; ξC = NC(CS)C(=O)O

The compounds below were run against T1, Human PD-L1/PD-1 (Homo sapiens, UniProt Q9NZQ7) (assay: HTRF Human PD-L1/PD-1 binding assay (PD-1-Ig/PD-L1-His)). Settings: PD-L1-His 10 nM, PD-1-Ig 20 nM; class symbol; read-out: HTRF Human PD-L1/PD-1 Binding Assay IC50 Range.
T1 construct: TVMV protease cleavage site (C); made in house; host or cells: HEK293T cells
T1 sequence (Q9NZQ7 with tags, fused parts or gaps): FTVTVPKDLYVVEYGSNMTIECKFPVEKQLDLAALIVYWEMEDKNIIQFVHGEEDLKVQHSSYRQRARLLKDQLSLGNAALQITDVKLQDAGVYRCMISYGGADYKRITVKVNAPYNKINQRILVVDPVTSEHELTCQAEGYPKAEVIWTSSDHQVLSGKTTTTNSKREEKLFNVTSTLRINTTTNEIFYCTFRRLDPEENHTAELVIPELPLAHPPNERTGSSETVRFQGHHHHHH
Outline: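 HTRF read-out (665/620 nm ratio) after 30 min equilibration with Eu-cryptate anti-Ig mAb (1 nM) and APC anti-His mAb (20 nM). Peptides preincubated 15 min with PD-L1-His (10 nM), then PD-1-Ig (20 nM) added for 15 min.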
For `CCCC[C@H]1C(=O)N2C[C@@H](O)C[C@@H]2C(=O)N[C@@H](CC(=O)O)C(=O)N[C@@H](C(C)C)C(=O)N(C)[C@@H](Cc2ccc(C)cc2)C(=O)N[C@@H](CCC(=O)O)C(=O)N2CCC[C@@H]2C(=O)N[C@@H](Cc2c[nH]c3ccccc23)C(=O)N[C@@H](Cc2ccc(O)cc2)C(=O)N[C@@H](CC(C)C)C(=O)N[C@H](C(=O)NCC(N)=O)CSCC(=O)N[C@@H](Cc2cc(F)c(F)c(F)c2)C(=O)N(C)[C@@H](Cc2ccccc2)C(=O)N1C` [Example 10117] ({CH2CO}-[Phe(3,4,5-F3)][NMeF][NMeNle][dHyp]DV[NMePhe(4-Me)]E[dP]WYLCG-NH2; thioether N-13), the IC50 was 100 to 990 nM. `CCCC[C@H]1C(=O)N2C[C@@H](O)C[C@@H]2C(=O)N[C@@H](CC(=O)O)C(=O)N[C@@H](C(C)C)C(=O)N(C)[C@@H](Cc2ccc(F)cc2)C(=O)N[C@@H](CCCN)C(=O)N2CCC[C@@H]2C(=O)N[C@@H](Cc2c[nH]c3ccccc23)C(=O)N[C@@H](Cc2ccc(O)cc2)C(=O)N[C@@H](CC(C)C)C(=O)N[C@H](C(=O)NCC(N)=O)CSCC(=O)N[C@@H](Cc2cc(F)c(F)c(F)c2)C(=O)N(C)[C@@H](Cc2ccccc2)C(=O)N1C` [Example 10118] ({CH2CO}-[Phe(3,4,5-F3)][NMeF][NMeNle][dHyp]DV[NMePhe(4-F)][Orn][dP]WYLCG-NH2; thioether N-13) was tested, and the IC50 was 1 to 9.9 nM. Compound `CCCC[C@H]1C(=O)N2C[C@@H](O)C[C@@H]2C(=O)N[C@@H](CC(=O)O)C(=O)N[C@@H](C(C)C)C(=O)N(C)[C@@H](Cc2ccc(C)cc2)C(=O)N[C@@H](CCCN)C(=O)N2CCC[C@@H]2C(=O)N[C@@H](Cc2c[nH]c3ccccc23)C(=O)N[C@@H](Cc2ccc(O)cc2)C(=O)N[C@@H](CC(C)C)C(=O)N[C@H](C(=O)NCC(N)=O)CSCC(=O)N[C@@H](Cc2cc(F)c(F)c(F)c2)C(=O)N(C)[C@@H](Cc2ccccc2)C(=O)N1C` [Example 10119] ({CH2CO}-[Phe(3,4,5-F3)][NMeF][NMeNle][dHyp]DV[NMePhe(4-Me)][Orn][dP]WYLCG-NH2; thioether N-13) has an IC50 of 100 to 990 nM. `CCCC[C@H]1C(=O)N2C[C@@H](O)C[C@@H]2C(=O)N[C@@H](CC(=O)O)C(=O)N[C@@H](C(C)C)C(=O)N(C)[C@@H](Cc2ccc(F)cc2)C(=O)N[C@@H](CCCN)C(=O)N2CCC[C@@H]2C(=O)N[C@@H](Cc2c[nH]c3ccccc23)C(=O)N[C@@H](Cc2ccc(O)cc2)C(=O)N[C@@H](CCCN)C(=O)N[C@H](C(=O)NCC(N)=O)CSCC(=O)N[C@@H](Cc2cc(F)c(F)c(F)c2)C(=O)N(C)[C@@H](Cc2ccccc2)C(=O)N1C` [Example 10120] ({CH2CO}-[Phe(3,4,5-F3)][NMeF][NMeNle][dHyp]DV[NMePhe(4-F)][Orn][dP]WY[Orn]CG-NH2; thioether N-13) showed an IC50 of 1 to 9.9 nM. For `CCCC[C@H]1C(=O)N2C[C@@H](O)C[C@@H]2C(=O)N[C@@H](CC(=O)O)C(=O)N[C@@H](C(C)C)C(=O)N(C)[C@@H](Cc2ccc(C)cc2)C(=O)N[C@@H](CCCN)C(=O)N2CCC[C@@H]2C(=O)N[C@@H](Cc2c[nH]c3ccccc23)C(=O)N[C@@H](Cc2ccc(O)cc2)C(=O)N[C@@H](CCCN)C(=O)N[C@H](C(=O)NCC(N)=O)CSCC(=O)N[C@@H](Cc2cc(F)c(F)c(F)c2)C(=O)N(C)[C@@H](Cc2ccccc2)C(=O)N1C` [Example 10121] ({CH2CO}-[Phe(3,4,5-F3)][NMeF][NMeNle][dHyp]DV[NMePhe(4-Me)][Orn][dP]WY[Orn]CG-NH2; thioether N-13), the IC50 was 100 to 990 nM. `CCCC[C@H]1NC(=O)[C@H](Cc2csc3ccccc23)NC(=O)[C@H](CO)NC(=O)[C@H](Cc2c[nH]c3ccccc23)OC(=O)[C@@H]2CCCN2C(=O)[C@H](CC(C)C)NC(=O)[C@H](Cc2cnc[nH]2)NC(=O)[C@@H]2CCCN2C(=O)[C@H](CC(N)=O)NC(=O)[C@H](C)N(C)C(=O)[C@H](Cc2ccc(O)cc2)NC(=O)CSCC(C(=O)NCC(N)=O)NC(=O)[C@H](CCCNC(=N)N)NC(=O)[C@H](CCCC)N(C)C1=O` (stereo partly drawn) [Example 10122] ({CH2CO}-Y[NMeA]NPHLP[Lac(3-(indol-3-yl))]S[Bta][dNle][NMeNle]R[ξC]G-NH2; thioether N-14) gave an IC50 of 1000 to 10000 nM.
